Laboratory results reported in patent publication US10669235B2, “Indole derivatives and their use as protein kinase inhibitors” (RESPIVERT LIMITED, priority 2016, dated 2020).
Structures can show the parent of a compound that is named as a salt. Where two headings read alike, the source gives them in different places.

What was measured:
PAMPA permeability assay = format: in vitro ADME; conditions: pH 7, PAMPA; for Papp at 5 hr, 10 μM: pH 7, 10 μM
PDGFRβ [1] = molecular target: T1, PDGFRβ (Homo sapiens (Human), UniProt P09619); assay: PDGF-BB induced phosphorylation of PDGFRβ in fibroblasts (MRC5, HTRF); format: cell-based; conditions: MRC5 cells, PDGFBB stimulation; read-out: PDGFBB-induced PDGFRβ phosphorylation in MRC5 cells (IC50)
T1 sequence (P09619 33-1106): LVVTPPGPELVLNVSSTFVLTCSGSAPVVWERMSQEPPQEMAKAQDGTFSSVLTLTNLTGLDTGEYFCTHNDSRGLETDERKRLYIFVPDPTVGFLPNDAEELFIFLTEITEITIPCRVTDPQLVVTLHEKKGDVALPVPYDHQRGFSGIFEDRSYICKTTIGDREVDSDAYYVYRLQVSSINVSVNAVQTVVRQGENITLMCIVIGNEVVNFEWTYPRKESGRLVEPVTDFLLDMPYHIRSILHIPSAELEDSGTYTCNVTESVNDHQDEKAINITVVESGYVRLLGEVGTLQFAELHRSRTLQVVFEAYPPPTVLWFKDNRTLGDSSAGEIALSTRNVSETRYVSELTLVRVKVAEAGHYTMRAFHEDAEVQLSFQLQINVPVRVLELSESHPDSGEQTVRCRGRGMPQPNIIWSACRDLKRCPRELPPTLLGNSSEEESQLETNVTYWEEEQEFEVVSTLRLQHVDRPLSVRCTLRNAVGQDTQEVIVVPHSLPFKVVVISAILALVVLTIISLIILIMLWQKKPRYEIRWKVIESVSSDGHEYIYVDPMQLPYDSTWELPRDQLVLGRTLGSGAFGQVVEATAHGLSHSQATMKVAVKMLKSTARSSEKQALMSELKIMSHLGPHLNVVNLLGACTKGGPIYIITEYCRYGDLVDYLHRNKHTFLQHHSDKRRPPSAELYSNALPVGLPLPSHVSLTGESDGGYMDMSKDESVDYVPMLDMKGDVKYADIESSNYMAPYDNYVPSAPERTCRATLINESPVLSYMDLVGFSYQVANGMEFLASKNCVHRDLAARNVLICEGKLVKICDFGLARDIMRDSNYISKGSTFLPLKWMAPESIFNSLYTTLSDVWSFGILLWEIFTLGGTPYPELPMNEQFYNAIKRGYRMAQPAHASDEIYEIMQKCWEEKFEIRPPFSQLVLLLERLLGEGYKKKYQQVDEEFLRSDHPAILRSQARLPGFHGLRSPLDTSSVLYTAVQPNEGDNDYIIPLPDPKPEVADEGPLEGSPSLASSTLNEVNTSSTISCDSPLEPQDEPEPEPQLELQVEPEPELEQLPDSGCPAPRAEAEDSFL

[2] = Pharmacokinetic measurements in rats (i.v., i.t., oral); format: in vivo; conditions: rat; for concentration at 0.1 h: read-out: lung concentration (nM) at time 0.1 h; for concentration at 1.5 h: read-out: lung concentration (nM) at time 1.5 h; for concentration at 6 h: read-out: lung concentration (nM) at time 6 h; for concentration at 24 h: read-out: lung concentration (nM) at time 24 h
MRC5 cells = assay: Cell viability assay in MRC5 cells (MTT)
PDGFRβ [3] = molecular target: T1, PDGFRβ; assay: PDGFRβ enzyme inhibition (ADP-Glo assay); format: biochemical; conditions: mean, n = 2 (nintedanib n = 34)
[4] = i.t. dose 0.1 (nintedanib 0.42)
[5] = i.t. dose 0.1 (nintedanib 0.42), 6 h
[6] = i.t. dose 0.1 (nintedanib 0.42), 24 h
[7] = i.v. dose 0.1 (nintedanib 0.42)
[8] = i.v. dose 0.1 (nintedanib 0.42), 6 h
[9] = i.v. dose 0.1 (nintedanib 0.42), 24 h

SMILES | recovery at 5 hr, 10 μM (PAMPA permeability assay) | Papp at 5 hr, 10 μM (PAMPA permeability assay) | IC50 (PDGFRβ [1]) | Lung conc i.t./i.v. Ratio at time 0.1 h [2] | Lung conc i.t./i.v. Ratio at time 1.5 h [2] | Lung conc i.t./i.v. Ratio at time 6 h ([2]; 6 h) | Lung conc i.t./i.v. Ratio at time 24 h ([2]; 24 h) | BAL % administered dose at time 0.1 h [2, 4] | lung/plasma conc ratio at time 0.1 h [2, 4] | concentration at 0.1 h [2, 4] | BAL % administered dose at time 1.5 h [2, 4] | lung/plasma conc ratio at time 1.5 h [2, 4] | concentration at 1.5 h [2, 4] | BAL % administered dose at time 6 h [2, 5] | lung/plasma conc ratio at time 6 h [2, 5] | concentration at 6 h [2, 5] | BAL % administered dose at time 24 h [2, 6] | Cell viability at 100 nM (%) (MRC5 cells) | Cell viability at 300 nM (%) (MRC5 cells) | Cell viability at 1000 nM (%) (MRC5 cells) | other results
COC(=O)c1cc2c(cc1C)/C(=C(/Nc1ccc(C(=O)NCCN3CCC(N(C)C)CC3)cc1)c1ccccc1)C(=O)N2 [Example 6, (Z)-Methyl 3-(((4-((2-(4-(dimethylamino)piperidin-1-yl)ethyl)carbamoyl)phenyl)amino) (phenyl)methylene)-5-methyl-2-oxoindoline-6-carboxylate, formate] | 56.5% | 0.012 ×10⁻⁶ cm/s | 13.2 nM | 9.8 | 8.0 | 8.3 | 7.7 | 14% | 472 | 9826 nM | 0.9% | >4452 | 7568 nM | 1.1% | >4597 | 7815 nM | 0.9% | 102.3% | 98.9% | 91.2% | lung/plasma conc ratio at time 24 h [2, 6]: >3787; concentration at 24 h [2, 6]: 6438 nM; BAL % administered dose at time 0.1 h [2, 7]: BQL; lung/plasma ratio at time 0.1 h [2, 7]: 77; concentration at 0.1 h [2, 7]: 1002 nM; BAL % administered dose at time 1.5 h [2, 7]: BQL; lung/plasma ratio at time 1.5 h [2, 7]: >558; concentration at 1.5 h [2, 7]: 949 nM; BAL % administered dose at time 6 h [2, 8]: BQL; lung/plasma ratio at time 6 h [2, 8]: >552; concentration at 6 h [2, 8]: 939 nM; BAL % administered dose at time 24 h [2, 9]: BQL; lung/plasma ratio at time 24 h [2, 9]: >492; concentration at 24 h [2, 9]: 837 nM
COC(=O)c1cc2c(cc1C)/C(=C(/Nc1ccc(C(=O)NCC(=O)N3CCN(CCO)CC3)cc1)c1ccccc1)C(=O)N2 [Example 7, (Z)-Methyl 3-(((4-((2-(4-(2-hydroxyethyl)piperazin-1-yl)-2-oxoethyl)carbamoyl)phenyl)amino) (phenyl)methylene)-5-methyl-2-oxoindoline-6-carboxylate, formate] | 56.3% | 0.00653 ×10⁻⁶ cm/s | 6.04 nM | 15.5 | 20.1 | >42 | >10 | 3.5% | 39 | 1532 nM | 0.6% | >265 | 886 nM | 0.1% | >35 | 116 nM | BQL | 102.9% | 97.2% | 67.5% | MRT ([2]; male, CD, plasma, iv): 42 min; clearance ([2]; male, CD, plasma, iv): 75 mL/min/kg; half-life ([2]; male, CD, plasma, iv): 36 min; Vd ([2]; male, CD, plasma, iv, read-out: Vss): 3.4 L/kg; i.t. BAV (%) [2, 4]: 35%; lung/plasma conc ratio at time 24 h [2, 6]: >8; concentration at 24 h [2, 6]: 27 nM; BAL % administered dose at time 0.1 h [2, 7]: 0.06%; lung/plasma ratio at time 0.1 h [2, 7]: 2; concentration at 0.1 h [2, 7]: 99 nM; BAL % administered dose at time 1.5 h [2, 7]: BQL; lung/plasma ratio at time 1.5 h [2, 7]: 12; concentration at 1.5 h [2, 7]: 44 nM; BAL % administered dose at time 6 h [2, 8]: BQL; lung concentration (nM) at time 6 h [2, 8]: BQL; BAL % administered dose at time 24 h [2, 9]: BQL; lung concentration (nM) at time 24 h [2, 9]: BQL; Oral BAV (%) ([2]; oral dose 3 mg/kg): <7%
COC(=O)c1cc2c(cc1C)/C(=C(/Nc1cccc(C(=O)N(C)CCN(C)C)c1)c1ccccc1)C(=O)N2 [Example 16, (Z)-Methyl 3-(((3-((2-(dimethylamino)ethyl)(methyl)carbamoyl)phenyl)amino)(phenyl)methylene)-5-methyl-2-oxoindoline-6-carboxylate] | – | – | – | – | – | – | – | – | – | – | – | – | – | – | – | – | – | 103.2% | 104.3% | 70.6% | Ki (PDGFRβ [3]): 13 nM
